The source of these data is patent US4771050A, “Thiolactam-n-acetic acid derivatives” (Takeda Chemical Industries, Ltd., priority 1986, dated 1988).

For data set [1], the target named is T1, aldose reductase from human placenta (Homo sapiens, UniProt P15121).
T1 construct: Partially purified aldose reductase from human placenta; from tissue; host or cells: human placenta
Kind of data set: Aldose reductase inhibition (in vitro study). Format: biochemical. An excerpt:
1. Aldose reductase inhibition (in vitro study)
Partially purified aldose reductase from human placenta was used for the test of aldose reductase inhibitory effect according to the method of S. Hayman et al. described in Journal of Biological Chemistry, 240, 877 (1965) or the method of J. H. Kinoshita et al. described in Metabolism, 28, Supplement 1, 462 (1979).

Data set [2] in a line: Acute toxicity in mice (oral). Further details: species or system mouse (ICR). The settings on record: in vivo, mouse, mortality during 14 days. An excerpt: (§1) Acute toxicity of 3,4-dihydro-2,8-diisopropyl-3-thioxo-2H-1,4-benzoxazine-4-acetic acid was examined in mice and rats.
(§2) The various doses of the test compound suspended in 5% gum arabic solution were orally administered to male ICR mice (4 weeks old) and male Wistar rats (5 weeks old), and then mortality was observed during 14 days. Each group consisted of 5 animals.

For data set [3], the system named is sorbitol accumulation in sciatic nerves of streptozocin diabetic rats. Kind of data set: Inhibition of sorbitol accumulation in the tissue of experimentally induced diabetic rat. Format: in vivo, rat (Spraque-Dawley). The settings on record: 30 mg/kg orally twice a day for 2 days; sciatic nerve; untreated control group = 100. On the procedure: Spraque-Dawley rats (male, 5-7-week-old, 5 animals per group) were fasted for 18 hours, and received injection of 70 mg/kg of streptozocin (Cal Biochem Co.) into the caudal vein under anesthesia with ether, so that diabetic rats were obtained. From immediately after the injection of streptozocin these rats were given orally the test compound of 50 mg/kg or 30 mg/kg in the form of 5% gum arabic suspension twice a day (at 10 a.m. and 5 p.m.) for 2 days. During this period the rats were allowed to take CE-2 diet (Clea Japan, Inc.) and water ad libitum. In the morning on the 3rd day (9 a.m.) the rats were killed (decapitation and venesection), and immediately the sciatic nerves were isolated, from which sorbitol was extracted according to the method of M. J. Peterson et al. described in Metabolism, 28, 456 (1979) and the sorbitol level was determined by the enzymatic method of P.S. Clements et al. in Science, 166, 1007 (1969).

A further data set concerns washed rat platelets. Nature of the data set: Inhibitory action on platelet aggregation (washed rat platelets). Format: cell-based, rat (Spraque-Dawley). The conditions noted are these: for inhibition at 300 µM: 3 × 10^-4 M; for inhibition at 100 µM: 10^-4 M. On the procedure: 3. Inhibitory action on platelet aggregation
Effect of 3,4-dihydro-2,8-diisopropyl-3-thioxo-2H-1,4-benzoxazine-4-acetic acid on platelet aggregation was examined using washed rat platelets.
Platelet rich plasma (PRP) was prepared by centrifuging the blood at 150 xg for 15 min at room temperature. To prepare washed platelets, the PRP was centrifuged at 1500 xg for 10 min and the precipitated platelets were resuspended in Tyrode's solution. The number of platelets used was 7×10^5 cells/mm^3. Platelet aggregation was measured by the turbidmetric method using an aggregometer (Nikko Bioscience, Model PAR-4M, Tokyo). The test compound dissolved in 10 μl of water was added to 250 μl of washed platelet suspension and incubated at 37° C. for 3 min before 10 μl of aggregating agents ([…] of collagen, Nikko Bioscience or 10 μM of ADP, Shigma, St. Louis, Mo., at the final concentration) was added.

Data set [4] is described as follows: Acute toxicity in rats (oral). The conditions noted are these: in vivo, rat, mortality during 14 days. Further details: species or system rat (Wistar).
Excerpt: as §1, §2

Where [5] appears, read: Rattus norvegicus, Platelet, inducer ADP, Mean ± SD (N = 3), read-out: percent inhibition of aggregation.
Setting [6] is: Rattus norvegicus, Platelet, inducer collagen, Mean ± SD (N = 3), read-out: percent inhibition of aggregation.

Read-outs that look alike come from different tables or passages of the source.

As to `CC(C)c1cccc2c1OC(C(C)C)C(=S)N2CC(=O)O` (stereo not shown) [Example 8, 3,4-dihydro-2,8-diisopropyl-3-thioxo-2H-1,4-benzoxazine-4-acetic acid], at 1 µM the inhibition in data set [1] (10^-6 M) was 50.2%. The molecule also yielded an inhibition at 0.1 µM in data set [1] (10^-7 M) of 9.1%. Besides, the LD50 at 336 h came out at 1880 mg/kg in data set [2] and 2830 mg/kg in data set [4]. For the same molecule, the sorbitol accumulation in data set [3] is 30%. Moreover, the “inhibitory action compared with indomethacin (in words)” value in the data set with washed rat platelets (ADP-induced aggregation) is on record as “more potent than that of indomethacin”. Moreover, the values for the inhibition at 300 µM in the data set on washed rat platelets (setting [5]) and in the data set with washed rat platelets (setting [6]) were 42 ± 7.1% and 24.1 ± 3.4%, respectively. The inhibition at 100 µM was determined as 90 ± 6% in the data set on washed rat platelets (setting [5]) and 31.8 ± 0.9% in the data set on washed rat platelets (setting [6]). Moreover, in the data set with washed rat platelets (Rattus norvegicus, Platelet, inducer collagen, 3 × 10^-5 M, Mean ± SD (N = 3), read-out: percent inhibition of aggregation), the inhibition at 30 µM stood at 74.5 ± 5.5%. In addition, the inhibition at 60 µM with washed rat platelets (Rattus norvegicus, Platelet, inducer collagen, 6 × 10^-5 M, Mean ± SD (N = 3), read-out: percent inhibition of aggregation) was found to be 46.5 ± 1.3%. In addition, in the data set on washed rat platelets (induced by either collagen or ADP), the “inhibition of aggregation of washed platelets (in words)” value is “inhibited aggregation of washed platelets induced by either collagen or ADP in a dose related manner”.

A word on the inhibition: it is the drop in the measured response relative to a control, in per cent. As a reminder, the LD50 is the dose at which mortality reaches 50%. A high value points to a less toxic substance.
